What was measured:
[1] = test system: Thrombocyte aggregation induced by arachidonic acid; assay: Thrombocyte aggregation induced by arachidonic acid; assay type: cell-based, human; settings: arachidonic acid 0.2 mmol
Method: (§1) The study of antiaggregant and anticoagulant properties of N,N′-substituted piperazines on the sample of donor human blood. The blood was collected by donor ulnar vein punction with dry sharp needle without syringe. The administration of drugs that influence on thrombocyte function was cancelled in 7÷10 days before the experiment.
(§2) In graduated plastic centrifuge tube 1 ml of 3.8% basic trisodium citrate solution with pH=7.4 was placed. The ulnar vein was punctuated, the freely effluent blood was collected up to 10 ml mark, the mixture was instantly stirred to prevent air bubbles appearance. The collected and stabilized blood was split in two 5 ml portions in two tubes.
(§3) To obtain thrombocyte enriched plasm the stabilized blood was spinned at 1000 rpm (150 g) for 8 min at room temperature. The repeated spinning of the blood at 3200 rpm (2300 g) for 20 min at 22° C. yielded thrombocyte depleted plasm.
The study of antiaggregant properties of N,N′-substituted piperazines with arachidonic acid (CHRONO-LOG, USA) as an inductor: to 450 l of thrombocyte plasm 50 l of N,N′-substituted piperazine solution was added, the mixture was incubated in the cuvette of CHRONO-LOG aggregometer for 15 min at 36° C. The concentration of arachidonic acid in the sample was 0.2 mmol, the concentrations of N,N′-substituted piperazines and comparison substance (aspirin) were 4÷5 mmol/L.
It was shown that N,N′-substituted piperazines have pronounced aspirin-like activity by inhibiting thrombocyte aggregation induced by arachidonic acid (table 5).

[2] = test system: Ristocetin-induced thrombocyte aggregation; assay: Ristocetin-induced thrombocyte aggregation, donor human thrombocyte enriched plasm; assay type: cell-based; settings: ristocetin inductor; for MA (60 c), %: amplitude at 60 s
Method: as §1, §2, §3
(§4) The study of anticoagulant activity was done within 2 h after thrombocyte enriched plasm obtaining. The plasm was normalized to achieve thrombocyte concentration of 200-250×10^9/L by addition of thrombocyte-free plasm. The concentration of thrombocytes was measured on SOLAR AR 2110 analyzer.
(§5) Antiaggregant properties of N,N′-substituted piperazines were evaluated by their influence on thrombocyte aggregation in tests with ADP-, collagen- and ristocetin-induced aggregation. To dissolve N,N′-substituted piperazines and to dilute reagents Tris-HCl-buffer with pH=7.4 was used.
(§6) As the general characteristic of thrombocyte aggregation activity the maximum amplitude (MA) of aggregation was taken on. That is the peak value of transmittance coefficient of the sample after aggregation agent introduction expressed in % relative to the transmittance of thrombocyte-free plasm. The response was registered on ascending linear segment of aggregation curve for 16 s.
(§7) The measurements were done using 4-channel CHRONO-LOG 490-4D analyzer (CHRONO-LOG, USA). The temperature in the cell was 37° C., the spinning speed of magnetic stirrer was 1200 rpm.
(§8) In a cuvette 0.5 ml of N,N′-substituted piperazine solution was placed, then 0.4 ml of normalized thrombocyte plasm was added. The mixture was stirred and incubated at 37° C. for 5 min. The cuvette was placed in aggregometer, then 0.05 ml of aggregation inductor solution was added (ADP or collagen or ristocetin). Thrombocyte aggregation was measured for 3 min.
To study ristocetin-induced thrombocyte aggregation CHRONO-PAR RISTOCETIN reagent (CHRONO-LOG, USA) was diluted with buffer solution until ristocetin concentration reached 12 mg/ml. Thrombocyte aggregation amplitude was measured in 60 s after the beginning of the reaction.

[3] = test system: thrombocyte depleted plasm coagulation; assay: Activated partial thromboplastin time (APTT), anticoagulant properties; assay type: biochemical, human
Method: as §1, §2, §3
To study anticoagulant properties of N,N′-substituted piperazines activated partial thromboplastin time (APTT) was measured. That is the ability of N,N′-substituted piperazines to increase thrombocyte depleted plasm coagulation time compared to the ability of control sample. The set of reagents for APTT determination (Russian Scientific Research Institute of Hematology and Transfusiology Ministry of Health of Russian Federation by Technical Regulation 9398-214-01966456-99) and COAG-A-MATE® XM coagulometer (ORGANON TEKNIKA, USA) were used.
The solutions of N,N′-substituted piperazines were mixed with thrombocyte depleted plasm at 1:1 ratio, then 0.1 ml of APTT reagent was added, the mixture was incubated in the cuvette for 5 min at 37° C., then 0.1 ml of 0.277% CaCl2 solution was added. The time of coagulation (in seconds) was measured.

[4] = test system: Collagen-induced thrombocyte aggregation; assay: Collagen-induced thrombocyte aggregation, donor human thrombocyte enriched plasm; assay type: cell-based; settings: collagen inductor; for MA, %: human thrombocyte plasm; for inhibition at 500 µM / inhibition at 1250 µM / inhibition at 2500 µM / inhibition at 5000 µM: Homo sapiens, read-out: (MA0-MAx): MA0 * 100%
Method: as §1, §2, §3, §4, §5, §6, §7, §8
In collagen-induced thrombocyte aggregation test CHRONO-PAR COLLAGEN reagent (CHRONO-LOG, USA) was diluted with buffer solution until collagen concentration reached 10 µg/ml.

[5] = test system: ADP-induced thrombocyte aggregation; assay: ADP-induced thrombocyte aggregation, donor human thrombocyte enriched plasm; assay type: cell-based; settings: ADP inductor; for MA, %: human thrombocyte plasm
Method: as §1, §2, §3, §4, §5, §6, §7, §8
ADP-induced reversible thrombocyte aggregation test utilized CHRONO-PAR ADP reagent (CHRONO-LOG, USA) with 10 mol concentration. Primary (reversible) thrombocyte aggregation was evaluated by the response on addition of ADP threshold dose (ADP concentration is 1 mol) to plasm.

[6] = 1.7 mmol/L, thrombocyte depleted plasm
[7] = 2.5 mmol/L, thrombocyte depleted plasm
[8] = 4.1 mmol/L, thrombocyte depleted plasm
[9] = 8.3 mmol/L, thrombocyte depleted plasm
[10] = Homo sapiens, 0.2 mmol/L, read-out: (MA0-MAx): MA0 * 100%
[11] = Homo sapiens, 0.5 mmol/L, read-out: (MA0-MAx): MA0 * 100%
[12] = Homo sapiens, 1.25 mmol/L, read-out: (MA0-MAx): MA0 * 100%
[13] = Homo sapiens, 2.50 mmol/L, read-out: (MA0-MAx): MA0 * 100%

| Structure (SMILES) | MA ([1]; 4.5 mmol/L) | Max. rate for 16 sec ([1]; 4.5 mmol/L) | inhibition at 4500 µM ([1]; Homo sapiens, 4.5 mmol/L) [%] | (MAx-MA0): MA0 * 100% ([2]; 0.5 mmol/L) [%] | MA (60 c), % ([2]; 0.5 mmol/L) [%] | (MAx-MA0): MA0 * 100% (Ozagrel: (MA0-MAx): MA0 * 100%) ([2]; 1.25 mmol/L) [%] | MA, % ([4]; 0.5 mmol/L) [%] | MA, % ([4]; 1.25 mmol/L) [%] | MA, % ([4]; 2.5 mmol/L) [%] | inhibition at 500 µM ([4]; 0.5 mmol/L) [%] | inhibition at 1250 µM ([4]; 1.25 mmol/L) [%] | inhibition at 2500 µM ([4]; 2.5 mmol/L) [%] | MA, % ([5]; 0.2 mmol/L) [%] | MA, % ([5]; 0.5 mmol/L) [%] | MA, % ([5]; 1.25 mmol/L) [%] | MA, % ([5]; 2.50 mmol/L) [%] | inhibition at 200 µM [5, 10] [%] | inhibition at 500 µM [5, 11] [%] | inhibition at 1250 µM [5, 12] [%] | inhibition at 2500 µM [5, 13] [%] | further results |
| --- | --- | --- | --- | --- | --- | --- | --- | --- | --- | --- | --- | --- | --- | --- | --- | --- | --- | --- | --- | --- | --- |
| CC(=O)Oc1ccccc1C(=O)O [Acetylsalicylic acid, reference compound] | – | – | – | – | – | – | – | – | – | – | – | – | – | – | – | – | – | – | – | – | MA ([1]; 5 mmol/L): 3; Max. rate for 16 sec ([1]; 5 mmol/L): 5; inhibition at 5000 µM ([1]; Homo sapiens, 5 mmol/L): 100% |
| COc1cc(C(=O)N2CCN(C(=N)N)CC2)cc(OC)c1OC.O=C(O)/C=C/C(=O)O [Example 1, 4-(3,4,5-trimethoxybenzoyl)piperazine-1-carboximidamide fumarate hemihydrate] | 33 | 20 | 60 | 1.8 | 70.0 ± 10.5 | 12.9 | 70.0 ± 5.1 | 60.7 ± 7.7 | 18.4 ± 3.1 | 5.4 | 18.8 | 75.1 | 6.4 ± 1.1 | 5.0 ± 1.1 | 4.1 ± 0.7 | 3.0 ± 12.1 | 53.3 | 63.5 | 70.1 | 78.1 | MA (60 c), % ([2]; 1.25 mmol/L): 62.1 ± 7.7%; (MAx-MA0): MA0 * 100% (Ozagrel: (MA0-MAx): MA0 * 100%) ([2]; 2.5 mmol/L): 22.7%; MA (60 c), % ([2]; 2.5 mmol/L): 55.1 ± 11.1%; (MAx-MA0): MA0 * 100% (Ozagrel: (MA0-MAx): MA0 * 100%) ([2]; 5.0 mmol/L): 53.3%; MA (60 c), % ([2]; 5.0 mmol/L): 33.3 ± 4.5%; (APTTx-APTT0): APTT0 * 100% ([3]; 1.7 mmol/L): 12.2%; APTT [3, 6]: 50.4 ± 7.0 s; (APTTx-APTT0): APTT0 * 100% ([3]; 2.5 mmol/L): 40.1%; APTT [3, 7]: 63.3 ± 5.7 s; (APTTx-APTT0): APTT0 * 100% ([3]; 4.1 mmol/L): 56.8%; APTT [3, 8]: 70.4 ± 5.2 s; (APTTx-APTT0): APTT0 * 100% ([3]; 8.3 mmol/L): 209.8%; APTT [3, 9]: 139.1 ± 9.5 s; MA, % ([4]; 5.0 mmol/L): 2.1 ± 0.4%; inhibition at 5000 µM ([4]; 5.0 mmol/L): 97.2%; MA, % ([5]; 5.0 mmol/L): 1.3 ± 0.5%; inhibition at 5000 µM ([5]; Homo sapiens, 5.0 mmol/L, read-out: (MA0-MAx): MA0 * 100%): 90.5% |
| CCOc1ccc(CN2CCN(C(=N)N)CC2)c(OCC)c1OCC.Cl [Example 5, 4-(2,3,4-triethoxybenzyl)piperazine-1-carboximidamide hydrochloride] | – | – | – | – | – | – | 74.5 ± 4.3 | 63.7 ± 2.2 | 23.9 ± 0.3 | 5.3 | 19.1 | 69.8 | 14.9 ± 2.0 | 11.5 ± 1.3 | 5.3 ± 2.2 | 1.9 ± 0.4 | 2.7 | 24.8 | 65.4 | 87.8 | MA ([1]; 4.0 mmol/L): 2; Max. rate for 16 sec ([1]; 4.0 mmol/L): 1; inhibition at 4000 µM ([1]; Homo sapiens, 4.0 mmol/L): 100%; (APTTx-APTT0): APTT0 * 100% ([3]; 1.7 mmol/L): −4.9%; APTT [3, 6]: 53.7 ± 7.0 s; (APTTx-APTT0): APTT0 * 100% ([3]; 2.5 mmol/L): 22.7%; APTT, sec [3, 7]: 69.2 ± 5.9- sec; (APTTx-APTT0): APTT0 * 100% ([3]; 4.1 mmol/L): 35.6%; APTT [3, 8]: 76.5 ± 9.8 s; (APTTx-APTT0): APTT0 * 100% ([3]; 6.3 mmol/L): 75.4%; APTT ([3]; 6.3 mmol/L, thrombocyte depleted plasm): 98.9 ± 9.9 s; APTT [3, 9]: >150 s |
| COc1ccc(CN2CCN(C(=N)N)CC2)c(OC)c1OC [Example 7, 4-(2,3,4-trimethoxybenzyl)piperazine-1-carboximidamide monohydrate] | 72 | 49 | 35 | – | – | – | – | – | – | – | – | – | – | – | – | – | – | – | – | – | – |
| Cl.N=C(N)N1CCN(S(=O)(=O)c2cc(Cl)c(Cl)cc2Cl)CC1 [Example 13, 4-(2,4,5-trichlorophenylsulfonyl)piperazine-1-carboximidamide hydrochloride] | – | – | – | 22.5 | 48.2 ± 7.5 | 30.9 | 72.1 ± 6.3 | 62.0 ± 9.8 | 55.0 ± 9.2 | 7.2 | 20.2 | 29.2 | 14.0 ± 3.9 | 10.3 ± 1.3 | 4.7 ± 2.1 | 1.4 ± 0.2 | 10.8 | 34.4 | 70.1 | 91.1 | MA ([1]; 4.0 mmol/L): 2; Max. rate for 16 sec ([1]; 4.0 mmol/L): 1; inhibition at 4000 µM ([1]; Homo sapiens, 4.0 mmol/L): 100%; (MAx-MA0): MA0 * 100% ([2]; 0.2 mmol/L): 1.8%; MA (60 c), % ([2]; 0.2 mmol/L): 60.1 ± 8.1%; MA (60 c), % ([2]; 1.25 mmol/L): 43.0 ± 4.8%; (MAx-MA0): MA0 * 100% (Ozagrel: (MA0-MAx): MA0 * 100%) ([2]; 2.5 mmol/L): 43.4%; MA (60 c), % ([2]; 2.5 mmol/L): 35.2 ± 7.6%; (MAx-MA0): MA0 * 100% (Ozagrel: (MA0-MAx): MA0 * 100%) ([2]; 5.0 mmol/L): 48.4%; MA (60 c), % ([2]; 5.0 mmol/L): 32.1 ± 5.5%; MA, % ([4]; 5.0 mmol/L): 48.7 ± 7.1%; inhibition at 5000 µM ([4]; 5.0 mmol/L): 37.3% |

Reference: patent US9249115B2, “N,N1 substituted piperazines having combined antiaggregant, anticoagulant and vasodilatory activity, and method for producing same” (Vertex Closed Joint Stock Company, priority 2011, dated 2016)
